Experimental data: publication PMC12527173, “Cytotoxic, anti-inflammatory, antioxidant, and anti-glyoxalase-I evaluation of chelating substances: In silico and in vitro study” (PLOS One, 2025)
Read-outs that look alike come from different tables or passages of the source.

How the values were obtained:
[1] = target: T1, human recombinant Glo-I enzyme (rhGlo-I) (Homo sapiens, UniProt Q04760); test: Glyoxalase-I (Glo-I) enzyme inhibition assay; assay type: biochemical; conditions: for Maximum (descriptive statistics of enzyme inhibition): highest mean inhibition over the tested concentrations; for Maximum (descriptive statistics of enzyme inhibition) / Minimum (descriptive statistics of enzyme inhibition): in % (unit assumed); for Minimum (descriptive statistics of enzyme inhibition): lowest mean inhibition over the tested concentrations
T1 construct: N-terminal Met and 6-His tag (N); purchased R&D Systems; host or cells: E. coli
T1 sequence (Q04760 2-184 limits assumed): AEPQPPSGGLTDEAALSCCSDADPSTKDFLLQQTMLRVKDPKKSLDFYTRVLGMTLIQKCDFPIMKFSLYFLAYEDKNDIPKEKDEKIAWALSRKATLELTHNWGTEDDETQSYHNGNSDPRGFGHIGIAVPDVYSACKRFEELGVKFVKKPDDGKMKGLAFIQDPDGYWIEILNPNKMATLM
Protocol: Solvents and chemicals were procured from Sigma-Aldrich Co. and Acros (ThermoFisher Scientific, New Jersey, USA). […] The enzyme was obtained from R&D Systems® Corporation in the USA. Synthetic compounds were tested for their inhibitory effects on the enzyme using a 10 mM DMSO stock concentration in triplicates. The manufacturer’s protocol from R & D Systems, Inc. in Minneapolis, MN, USA was followed for the in vitro experiments. The reconstituted Glo-I enzyme (0.5 mg/mL) was thawed after being stored at −70°C in sterile deionized water. […] The monitoring was done at a wavelength of 240 nm for 200 seconds at 37°C. The substrate mixture was freshly concocted with a concentration of 100 mM glutathione and 100 mM methylglyoxal (MG) in assay buffer containing 0.5 M sodium phosphate dibasic/monobasic. It was then left undisturbed at room temperature for 15 minutes […]. The selected compounds for investigation are subsequently produced in testing concentration ranges using a 0.1 M solution of sodium phosphate dibasic/monobasic with a pH range of 7–7.2. The blank contained an assay buffer with MG substrate. The test compounds were combined with human recombinant Glo-I (50 µM) in a 96-well plate to determine their kinetic behavior.

[2] = test system: SW480 colorectal cancer cell line; test: SRB cytotoxicity assay, SW480; assay type: cell-based; conditions: Homo sapiens, 72 h incubation, n = 12, read-out: Cytotoxicity (as of %Control) IC50 value SW480
Summary of the method: (§1)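 SRB colorimetric read-out, expressed as % of control optical density; IC50 derived by regression analysis of dose-response curves. Test substances and a reference drug were applied at 5 to 200 μg/mL, with periodontal ligament fibroblasts as the non-cancer comparator.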

[3] = test system: HCT116 colorectal cancer cell line; test: SRB cytotoxicity assay, HCT116; assay type: cell-based; conditions: Homo sapiens, HCT-116, 72 h incubation, n = 12, read-out: Cytotoxicity (as of %Control) IC50 value HCT116
Summary of the method: as §1

[4] = SRB cytotoxicity assay, normal PDL fibroblasts; assay type: cell-based; conditions: normal periodontal ligament (PDL) fibroblasts, 72 h incubation, 0.1–200 µM range, read-out: Cytotoxicity (as of %Control) IC50 value PDL fibroblasts
Summary of the method: as §1

[5] = test system: A549 lung cancer cell line; test: SRB cytotoxicity assay, A549; assay type: cell-based; conditions: Homo sapiens, 72 h incubation, n = 12, read-out: Cytotoxicity (as of %Control) IC50 value A549 lung malignancy
Summary of the method: as §1

[6] = test system: Human PC3 prostate cancer cell line; test: SRB cytotoxicity assay, PC3; assay type: cell-based; conditions: 72 h incubation, n = 12, read-out: Cytotoxicity (as of %Control) IC50 value PC3 prostate malignancy
Summary of the method: as §1

[7] = test system: T47D breast cancer cell line; test: SRB cytotoxicity assay, T47D; assay type: cell-based; conditions: Homo sapiens, 72 h incubation, n = 12, read-out: Cytotoxicity (as of %Control) IC50 value T47D mammary malignancy
Summary of the method: as §1

[8] = test system: HeLa uterine cervix adenocarcinoma cell line; test: SRB cytotoxicity assay, HeLa; assay type: cell-based; conditions: Homo sapiens, 72 h incubation, n = 12, read-out: Cytotoxicity (as of %Control) IC50 value Hela cervix malignancy
Summary of the method: as §1

[9] = test system: LPS-primed RAW 264.7 murine macrophages (nitrite / iNOS); test: Anti-inflammatory (nitrite) determination in LPS-primed macrophages; assay type: cell-based; conditions: Mus musculus, read-out: iNOS- IC50 value
Summary of the method: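 RAW 264.7 macrophages (2 x 10^5/well) were exposed to LPS (20 μg/mL) together with test compounds at 5–200 μg/mL for 24 h at 37 °C, with indomethacin as positive control. Nitrite in the medium was measured by Griess reaction at 550 nm against a sodium nitrite standard curve. SRB viability testing was run in parallel.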

[10] = 3.125 µM, read-out: Trial one (%inhibtion)
[11] = 3.125 µM, read-out: Trial three (%inhibtion)
[12] = 3.125 µM, read-out: Trial two (%inhibtion)
[13] = 6.25 µM, read-out: Trial one (%inhibtion)
[14] = 6.25 µM, read-out: Trial three (%inhibtion)
[15] = 6.25 µM, read-out: Trial two (%inhibtion)
[16] = 12.5 µM, read-out: Trial one (%inhibtion)
[17] = 12.5 µM, read-out: Trial three (%inhibtion)
[18] = 12.5 µM, read-out: Trial two (%inhibtion)
[19] = 25 µM, read-out: Trial one (%inhibtion)
[20] = 25 µM, read-out: Trial three (%inhibtion)
[21] = 25 µM, read-out: Trial two (%inhibtion)
[22] = 50 µM, read-out: Trial one (%inhibtion)
[23] = 50 µM, read-out: Trial three (%inhibtion)
[24] = 50 µM, read-out: Trial two (%inhibtion)
[25] = human recombinant Glo-I, triplicates, read-out: IC50 µM ± SD
[26] = RAW264.7, LPS-primed RAW 264.7, nitrite by Griess, 24 h, n = 12
[27] = read-out: Trial one (%inhibtion)
[28] = read-out: Trial three (%inhibtion)
[29] = read-out: Trial two (%inhibtion)

SMILES | inhibition at 3.125 µM [1, 10] | inhibition at 3.125 µM [1, 11] | inhibition at 3.125 µM [1, 12] | inhibition at 6.25 µM [1, 13] | inhibition at 6.25 µM [1, 14] | inhibition at 6.25 µM [1, 15] | inhibition at 12.5 µM [1, 16] | inhibition at 12.5 µM [1, 17] | inhibition at 12.5 µM [1, 18] | inhibition at 25 µM [1, 19] | inhibition at 25 µM [1, 20] | Maximum (descriptive statistics of enzyme inhibition) [1] | Minimum (descriptive statistics of enzyme inhibition) [1] | IC50 [2] | IC50 [3] | IC50 at 72 h [4] | IC50 [5] | IC50 [6] | IC50 [7] | IC50 [8] | other results
CC(/C=C/C(=O)NO)=C\[C@@H](C)C(=O)c1ccc(N(C)C)cc1 [Trichostatin A, reference compound] | 13.2% | 7.44% | 2.77% | 22.3% | 14.2% | 16.5% | 29.4% | 24.7% | 25% | 39.7% | 33.7% | 47.33 | 7.808 | 44.3 ± 4.67 µM | 14 ± 2.5 µM | > 200 µM | 2 ± 0.21 µM | 47.5 ± 3.96 µM | 14.7 ± 0.28 µM | 1.4 ± 0.2 µM | inhibition at 25 µM [1, 21]: 38.4%; inhibition at 50 µM [1, 22]: 52.1%; inhibition at 50 µM [1, 23]: 38.8%; inhibition at 50 µM [1, 24]: 51.1%; IC50 [1, 25]: 43.5 ± 15.6 µM; IC50 [9, 26]: 1.69 ± 0.12 µM
O=c1cc(O)cc(/C=C/c2ccc(O)c(O)c2)o1 [Hispidin] | 10.9% | 20.2% | 4.72% | 19.1% | 24% | 10% | 29.5% | 34.3% | 19.2% | 47.9% | 43.5% | 50.76 | 11.95 | 34.6 ± 3.11 µM | 198 ± 12.2 µM | > 200 µM | 26 ± 5.22 µM | 139 ± 13.6 µM | 52.6 ± 0.69 µM | 122 ± 1.34 µM | inhibition at 25 µM [1, 21]: 32.4%; inhibition at 50 µM [1, 22]: 53.5%; inhibition at 50 µM [1, 23]: 54.5%; inhibition at 50 µM [1, 24]: 44.3%; IC50 [1, 25]: 36.4 ± 16.1 µM; IC50 [9, 26]: 3.47 ± 0.49 µM
CC(C)=CC[C@@H](O)C1=CC(=O)c2c(O)ccc(O)c2C1=O [Shikonin] | – | – | – | – | – | – | – | – | – | – | – | 100.7 | 23.58 | 41.6 ± 6.37 µM | 108 ± 2.6 µM | > 200 µM | 54 ± 5.8 µM | 176.2 ± 1.25 µM | 30.9 ± 3.66 µM | 13.9 ± 1.91 µM | IC50 [1]: 8.1 µM; inhibition at 3.125 µM [1, 27]: 16.9%; inhibition at 6.25 µM [1, 27]: 34.8%; inhibition at 12.5 µM [1, 27]: 59.4%; inhibition at 25 µM [1, 27]: 72.5%; inhibition at 50 µM [1, 27]: 104%; inhibition at 3.125 µM [1, 28]: 30%; inhibition at 6.25 µM [1, 28]: 51.3%; inhibition at 12.5 µM [1, 28]: 61%; inhibition at 25 µM [1, 28]: 73.9%; inhibition at 50 µM [1, 28]: 101%; inhibition at 3.125 µM [1, 29]: 23.8%; inhibition at 6.25 µM [1, 29]: 45.8%; inhibition at 12.5 µM [1, 29]: 65.1%; inhibition at 25 µM [1, 29]: 74.2%; inhibition at 50 µM [1, 29]: 96.9%; IC50 ([9]; RAW264.7, 24 h): 0.27 ± 0.05 µM
O=C1c2ccc(O)c(O)c2C(=O)c2c(O)ccc(O)c21 [Quinalizarin] | 22.8% | 28.6% | 19.5% | 32.6% | 33.7% | 28.6% | 37.2% | 41.8% | 35.4% | 42.7% | 43.6% | 56.90 | 23.66 | 118 ± 3.04 µM | 72.2 ± 5.7 µM | > 200 µM | 7.9 ± 0.71 µM | 143.1 ± 0.18 µM | 37.7 ± 4.78 µM | 85.51 ± 0.44 µM | inhibition at 25 µM [1, 21]: 46.6%; inhibition at 50 µM [1, 22]: 55.5%; inhibition at 50 µM [1, 23]: 55.3%; inhibition at 50 µM [1, 24]: 59.9%; IC50 [1, 25]: 33.4 ± 12.6 µM; IC50 [9, 26]: 1.85 ± 0.34 µM
